Source: patent publication US9695197B2, “Glycosidase inhibitors and uses thereof” (Alectos Therapeutics Inc., priority 2012, dated 2017)

What was measured:
[1] = target: human O-GlcNAcase (Homo sapiens (Human), UniProt O60502); assay: Fluorescence-based assay for KI values for inhibition of O-GlcNAcase activity; assay type: biochemical; details: purified human O-GlcNAcase 0.7 nM, 2 mM 4-methylumbelliferyl GlcNAc substrate, pH 7.0, Cheng-Prusoff; read-out: Fluorescence-based hOGA Ki
Procedure: Assay for Determination of KI Values for Inhibition of O-GlcNAcase Activity
Experimental Procedure for Kinetic Analyses:
Enzymatic reactions were carried out in a reaction containing 50 mM NaH2PO4, 100 mM NaCl and 0.1% BSA (pH 7.0) using 2 mM 4-Methylumbelliferyl N-acetyl-β-D-glucosaminide dihydrate (Sigma M2133) dissolved in ddH2O, as a substrate. The amount of purified human O-GlcNAcase enzyme used in the reaction was 0.7 nM. Test compound of varying concentrations was added to the enzyme prior to initiation of the reaction. The reaction was performed at room temperature in a 96-well plate and was initiated with the addition of substrate. […] The slope of product production was determined for each concentration of compound tested and plotted, using standard curve fitting algorithms for sigmoidal dose response curves. The values for a four parameter logistic curve fit of the data were determined.

[2] = target: O-GlcNAcase (Rattus norvegicus (Rat), UniProt Q8VIJ5); assay: Cell-based ELISA for cellular activity of compounds that inhibit O-GlcNAcase (O-GlcNAcylated protein detected with RL-2 antibody); details: rat PC-12 cells, treated 24 h, O-GlcNAcylated protein by RL-2 ELISA
Sequence of O-GlcNAcase (Q8VIJ5 whole entry): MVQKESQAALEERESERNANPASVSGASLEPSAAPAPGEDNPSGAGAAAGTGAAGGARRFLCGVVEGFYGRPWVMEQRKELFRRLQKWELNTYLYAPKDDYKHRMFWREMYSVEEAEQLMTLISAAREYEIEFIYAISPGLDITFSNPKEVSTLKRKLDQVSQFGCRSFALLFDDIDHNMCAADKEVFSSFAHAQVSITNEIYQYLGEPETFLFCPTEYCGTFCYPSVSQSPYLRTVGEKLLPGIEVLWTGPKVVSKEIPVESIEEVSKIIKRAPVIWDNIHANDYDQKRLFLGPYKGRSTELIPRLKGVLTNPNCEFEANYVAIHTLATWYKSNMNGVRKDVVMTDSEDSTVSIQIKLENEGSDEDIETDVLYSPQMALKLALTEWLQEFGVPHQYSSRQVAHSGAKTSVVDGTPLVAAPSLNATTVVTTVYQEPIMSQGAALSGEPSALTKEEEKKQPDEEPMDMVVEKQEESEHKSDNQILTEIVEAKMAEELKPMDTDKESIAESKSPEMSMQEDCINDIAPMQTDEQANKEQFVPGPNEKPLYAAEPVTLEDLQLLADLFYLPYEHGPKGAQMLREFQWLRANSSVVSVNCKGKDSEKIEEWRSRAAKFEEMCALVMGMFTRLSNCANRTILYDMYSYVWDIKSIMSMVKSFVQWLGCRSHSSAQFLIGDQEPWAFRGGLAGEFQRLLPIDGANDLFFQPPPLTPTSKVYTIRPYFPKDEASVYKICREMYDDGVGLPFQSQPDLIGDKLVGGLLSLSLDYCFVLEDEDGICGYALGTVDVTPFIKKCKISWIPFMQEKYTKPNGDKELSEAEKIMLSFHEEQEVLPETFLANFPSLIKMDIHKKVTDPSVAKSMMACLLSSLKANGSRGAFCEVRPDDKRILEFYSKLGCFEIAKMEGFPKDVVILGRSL
From the text: Assay for Determination of Cellular Activity for Compounds that Inhibit O-GlcNAcase Activity
Inhibition of O-GlcNAcase, which removes O-GlcNAc from cellular proteins, results in an increase in the level of O-GlcNAcylated protein in cells. An increase in 0-GlcNAcylated protein can be measured by an antibody, such as RL-2, that binds to 0-GlcNAcylated protein. The amount of O-GlcNAcylated protein:RL2 antibody interaction can be measured by enzyme linked immunosorbant assay (ELISA) procedures.
A variety of tissue culture cell lines, expressing endogenous levels of O-GlcNAcase, can be utilized; examples include rat PC-12, and human U-87, or SK-N-SH cells. In this assay, rat PC-12 cells are plated in 96-well plates with approximately 10,000 cells/well. Compounds to be tested are dissolved in DMSO, either 2 or 10 mM stock solution, and then diluted with DMSO and water in a two-step process using a Tecan workstation. […] To prepare a cell lysate, the media from compound treated cells is removed, the cells are washed once with phosphate buffered saline (PBS) and then lysed for 5 minutes at room temperature in 50 μL of Phosphosafe reagent (Novagen Inc, Madison, Wis.) with protease inhibitors and PMSF. The cell lysate is collected and transferred to a new plate, which is then either coated to assay plates directly or frozen −80° C. until used in the ELISA procedure. If desired, the total protein concentration of samples is determined using 20 μL of the sample using the BCA method.
The ELISA portion of the assay is performed in a black Maxisorp 96-well plate that is coated overnight at 4° C. with 100 μL/well of the cell lysate (1:10 dilution of the lysate with PBS containing protease inhibitors, phosphatase inhibitors, and PMSF). The following day the wells are washed 3 times with 300 μL/well of Wash buffer (Tris-buffered saline with 0.1% Tween 20). The wells are blocked with 100 μL/well Blocking buffer (Tris buffered saline w/0.05% Tween 20 and 2.5% Bovine serum albumin). Each well is then washed two times with 300 μL/well of wash buffer. The anti O-GlcNAc antibody RL-2 (Abcam, Cambridge, Mass.), diluted 1:1000 in blocking buffer, is added at 100 μL/well. The plate is sealed and incubated at 37° C. for 2 h with gentle shaking. The wells are then washed 3-times with 300 μL/well wash buffer. […] The detection reaction is incubated for 15 minutes at room temperature and then read with excitation at 530 nm and emission at 590 nm.
The amount of O-GlcNAcylated protein, as detected by the ELISA assay, is plotted for each concentration of test compound using standard curve fitting algorithms for sigmoidal dose response curves. The values for a four parameter logistic curve fit of the data are determined, with the inflection point of the curve being the potency value for the test compound.

[3] = Apparent permeability (Papp), bi-directional transport in LLC-PK1 cells; assay type: in vitro ADME; details: pig, 1 μM test compound, t=3 h, average of A to B and B to A
Procedure: Assay for Determination of Apparent Permeability (Papp)
Bi-directional transport was evaluated in LLC-PK1 cells in order to determine apparent permeability (Papp). LLC-PK1 cells can form a tight monolayer and therefore can be used to assess vectorial transport of compounds from basolateral to apical (B→A) and from apical to basolateral (A→B).
To determine Papp, LLC-PK1 cells were cultured in 96-well transwell culture plates (Millipore). Solutions containing the test compounds (1 μM) were prepared in Hank's Balanced Salt Solution with 10 mM HEPES. Substrate solution (150 μL) was added to either the apical (A) or the basolateral (B) compartment of the culture plate, and buffer (150 μL) was added to the compartment opposite to that containing the compound. At t=3 h, 50 μL samples were removed from both sides of monolayers dosed with test compound and placed in 96 well plates, scintillant (200 μL) or internal standard (100 μL labetolol 1 μM) was added to the samples and concentration was determined by liquid scintillation counting in a MicroBeta Wallac Trilux scintillation counter (Perkin Elmer Life Sciences, Boston, Mass.) or by LCMS/MS (Applied Biosystems SCIEX API 5000 triple quadruple mass spectrometer). […]
The apparent permeability, Papp, was calculated by the following formula for samples taken at t=3 h:
[formula] […] Papp was expressed as 10^−6 cm/s. […]

Sequence of human O-GlcNAcase (O60502 whole entry): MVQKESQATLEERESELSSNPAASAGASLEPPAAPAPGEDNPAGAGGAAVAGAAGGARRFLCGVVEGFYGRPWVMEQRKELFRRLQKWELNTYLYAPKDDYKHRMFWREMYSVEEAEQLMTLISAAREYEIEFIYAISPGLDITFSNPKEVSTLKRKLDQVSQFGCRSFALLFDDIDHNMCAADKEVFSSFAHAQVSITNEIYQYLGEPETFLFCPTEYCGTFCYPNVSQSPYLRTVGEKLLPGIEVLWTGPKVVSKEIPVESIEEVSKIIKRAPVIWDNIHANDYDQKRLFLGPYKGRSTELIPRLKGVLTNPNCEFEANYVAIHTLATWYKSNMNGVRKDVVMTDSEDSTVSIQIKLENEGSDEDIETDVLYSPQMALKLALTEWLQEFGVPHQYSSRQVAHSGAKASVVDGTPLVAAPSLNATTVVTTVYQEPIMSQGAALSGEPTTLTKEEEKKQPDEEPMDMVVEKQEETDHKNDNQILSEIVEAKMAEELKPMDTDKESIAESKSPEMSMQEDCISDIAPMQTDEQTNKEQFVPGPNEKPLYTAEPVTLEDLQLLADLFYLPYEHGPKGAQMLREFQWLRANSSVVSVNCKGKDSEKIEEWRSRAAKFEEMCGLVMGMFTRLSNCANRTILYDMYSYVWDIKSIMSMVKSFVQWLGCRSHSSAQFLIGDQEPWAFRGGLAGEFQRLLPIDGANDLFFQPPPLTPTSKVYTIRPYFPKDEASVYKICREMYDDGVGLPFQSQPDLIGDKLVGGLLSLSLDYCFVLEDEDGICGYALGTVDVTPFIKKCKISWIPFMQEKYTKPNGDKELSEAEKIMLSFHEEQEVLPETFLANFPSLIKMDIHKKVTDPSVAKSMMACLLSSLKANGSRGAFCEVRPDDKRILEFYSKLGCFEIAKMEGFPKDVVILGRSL

Row | Ki [1] | EC50 [2] | Papp at 3 h, 1 μM [3] | Structure (SMILES)
1 | 0.11 nM | 3 nM | – | CNC1=N[C@H]2[C@@H](S1)S[C@H](CO)[C@@H](O)[C@@H]2O [Example 4, (3aR,5R,6S,7R,7aR)-5-(hydroxymethyl)-2-(methylamino)-5,6,7,7a-tetrahydro-3aH-thiopyrano[3,2-d]thiazole-6,7-diol]
2 | 22 nM | 349 nM | – | CCNC1=N[C@H]2[C@@H](S1)S[C@H](C(F)F)[C@@H](O)[C@@H]2O [Example 5, (3aR,5S,6S,7R,7aR)-5-(difluoromethyl)-2-(ethylamino)-5,6,7,7a-tetrahydro-3aH-thiopyrano[3,2-d]thiazole-6,7-diol]
3 | 1.4 nM | 29 nM | – | CCCNC1=N[C@H]2[C@@H](S1)S[C@H](CO)[C@@H](O)[C@@H]2O [Example 3, (3aR,5R,6S,7R,7aR)-5-(hydroxymethyl)-2-(propylamino)-5,6,7,7a-tetrahydro-3aH-thiopyrano[3,2-d]thiazole-6,7-diol]
4 | 3 nM | 139 nM | 3.7 ×10⁻⁶ cm/s | CCNC1=N[C@H]2[C@@H](S1)S[C@H](CO)[C@@H](O)[C@@H]2O [Example 2, (3aR,5R,6S,7R,7aR)-2-(ethylamino)-5-(hydroxymethyl)-5,6,7,7a-tetrahydro-3aH-thiopyrano[3,2-d]thiazole-6,7-diol]
5 | – | – | < 1 ×10⁻⁶ cm/s | CCNC1=N[C@@H]2[C@@H](O)[C@H](O)[C@@H](CO)O[C@@H]2S1 [N/A, (3 aR,5R,6S,7R,7aR)-2-(ethylamino)-5-(hydroxymethyl)-5,6,7,7a-tetrahydro-3aH-pyrano[3,2-d]thiazole-6,7-diol, reference compound]

Row | Structure (SMILES) | Ki [1] | EC50 [2] | Papp at 3 h, 1 μM [3]
6 | CCNC1=N[C@@H]2[C@@H](O)[C@H](O)[C@@H](CO)S[C@@H]2O1 [Example 1, (3aS,5R,6S,7R,7aR)-2-(ethylamino)-5-(hydroxymethyl)-5,6,7,7a-tetrahydro 3aH-thiopyrano[3,2-d]oxazole-6,7-diol] | 3 nM | – | –
